# Legend:
# Streptococcus pyogenes [1] = assay: Compound was tested in vitro for its minimum inhibitory concentration by serial 2-fold agar dilution Muller Hinton method against Streptococcus pyogenes A 308; format: functional
# Streptococcus pyogenes [2] = assay: Compound was tested in vitro for its minimum inhibitory concentration by serial 2-fold agar dilution Muller Hinton method against Streptococcus pyogenes 8b; format: functional
# Staphylococcus aureus [3] = assay: Compound was tested in vitro for its minimum inhibitory concentration by serial 2-fold agar dilution Muller Hinton method against Staphylococcus aureus 503; format: functional
# Pseudomonas aeruginosa [4] = assay: Compound was tested in vitro for its minimum inhibitory concentration by serial 2-fold agar dilution Muller Hinton method against Pseudomonas aeruginosa 1771; format: functional
# Enterobacter cloacae [5] = assay: Compound was tested in vitro for its minimum inhibitory concentration by serial 2-fold agar dilution Muller Hinton method against Enterobacter cloacae 1321; format: functional
# Pseudomonas aeruginosa [6] = assay: Compound was tested in vitro for its minimum inhibitory concentration by serial 2-fold agar dilution Muller Hinton method against Pseudomonas aeruginosa 1592 E; format: functional
# Pseudomonas aeruginosa [7] = assay: Compound was tested in vitro for its minimum inhibitory concentration by serial 2-fold agar dilution Muller Hinton method against Pseudomonas aeruginosa 1771 M; format: functional
# Escherichia coli [8] = assay: Compound was tested in vitro for its minimum inhibitory concentration by serial 2-fold agar dilution Muller Hinton method against Escherichia coli TEM; format: functional
# Enterobacter cloacae [9] = assay: Compound was tested in vitro for its minimum inhibitory concentration by serial 2-fold agar dilution Muller Hinton method against Enterobacter cloacae P99; format: functional
# Klebsiella oxytoca = assay: Compound was tested in vitro for its minimum inhibitory concentration by serial 2-fold agar dilution Muller Hinton method against Klebsiella oxytoca 1082 E; format: functional
# Staphylococcus aureus [10] = assay: Compound was tested in vitro for its minimum inhibitory concentration by serial 2-fold agar dilution Muller Hinton method against Staphylococcus aureus SG511; format: functional
# Pseudomonas aeruginosa [11] = assay: Compound was tested in vitro for its minimum inhibitory concentration by serial 2-fold agar dilution Muller Hinton method against Pseudomonas aeruginosa 9027; format: functional
# Escherichia coli [12] = assay: Compound was tested in vitro for its minimum inhibitory concentration by serial 2-fold agar dilution Muller Hinton method against Escherichia coli DC 0; format: functional
# Salmonella typhimurium = assay: Compound was tested in vitro for its minimum inhibitory concentration by serial 2-fold agar dilution Muller Hinton method against Salmonella Typhimurium; format: functional, Salmonella enterica subsp. enterica serovar Typhimurium; settings: Salmonella enterica
# Klebsiella aerogenes = assay: Compound was tested in vitro for its minimum inhibitory concentration by serial 2-fold agar dilution Muller Hinton method against Klebsiella aerogenes 1522 E; format: functional
# Staphylococcus aureus [13] = assay: Compound was tested in vitro for its minimum inhibitory concentration by serial 2-fold agar dilution Muller Hinton method against Staphylococcus aureus 285; format: functional
# Escherichia coli [14] = assay: Compound was tested in vitro for its minimum inhibitory concentration by serial 2-fold agar dilution Muller Hinton method against Escherichia coli O 55; format: functional
# Streptococcus pyogenes [15] = assay: Compound was tested in vitro for its minimum inhibitory concentration by serial 2-fold agar dilution Muller Hinton method against Streptococcus pyogenes A77; format: functional
# Escherichia coli [16] = assay: Compound was tested in vitro for its minimum inhibitory concentration by serial 2-fold agar dilution Muller Hinton method against Escherichia coli 1507E; format: functional
# Escherichia coli [17] = assay: Compound was tested in vitro for its minimum inhibitory concentration by serial 2-fold agar dilution Muller Hinton method against Escherichia coli DC 2; format: functional
structure (smiles),measurement,setting,value
CO/N=C(\C(=O)NC1C(=O)N2C(C(=O)[O-])=C(CN(C)c3scc[n+]3C)CSC12)c1csc(N)n1 (stereo not given),MIC,Streptococcus pyogenes [1],0.007 µg/mL
same,MIC,Streptococcus pyogenes [2],> 100 µg/mL
same,MIC,Staphylococcus aureus [3],0.391 µg/mL
same,MIC,Pseudomonas aeruginosa [4],25 µg/mL
same,MIC,Enterobacter cloacae [5],0.049 µg/mL
same,MIC,Pseudomonas aeruginosa [6],50 µg/mL
same,MIC,Pseudomonas aeruginosa [7],1.56 µg/mL
same,MIC,Escherichia coli [8],0.098 µg/mL
same,MIC,Enterobacter cloacae [9],50 µg/mL
same,MIC,Klebsiella oxytoca,25 µg/mL
same,MIC,Staphylococcus aureus [10],1.56 µg/mL
same,MIC,Pseudomonas aeruginosa [11],50 µg/mL
same,MIC,Escherichia coli [12],0.098 µg/mL
same,MIC,Salmonella typhimurium,0.098 µg/mL
same,MIC,Klebsiella aerogenes,0.098 µg/mL
same,MIC,Staphylococcus aureus [13],3.12 µg/mL
same,MIC,Escherichia coli [14],0.025 µg/mL
same,MIC,Streptococcus pyogenes [15],0.007 µg/mL
same,MIC,Escherichia coli [16],0.098 µg/mL
same,MIC,Escherichia coli [17],0.098 µg/mL
CO/N=C(\C(=O)NC1C(=O)N2C(C(=O)[O-])=C(CN(C)c3sc4c([n+]3C)CCCC4)CSC12)c1csc(N)n1 (stereo not given),MIC,Streptococcus pyogenes [1],0.007 µg/mL
same,MIC,Streptococcus pyogenes [2],12.5 µg/mL
same,MIC,Staphylococcus aureus [3],0.195 µg/mL
same,MIC,Pseudomonas aeruginosa [4],6.25 µg/mL
same,MIC,Enterobacter cloacae [5],0.013 µg/mL
same,MIC,Pseudomonas aeruginosa [6],25 µg/mL
same,MIC,Pseudomonas aeruginosa [7],0.781 µg/mL
same,MIC,Escherichia coli [8],0.049 µg/mL
same,MIC,Enterobacter cloacae [9],6.25 µg/mL
same,MIC,Klebsiella oxytoca,3.12 µg/mL
same,MIC,Staphylococcus aureus [10],0.391 µg/mL
same,MIC,Pseudomonas aeruginosa [11],50 µg/mL
same,MIC,Escherichia coli [12],0.049 µg/mL
same,MIC,Salmonella typhimurium,0.049 µg/mL
same,MIC,Klebsiella aerogenes,0.025 µg/mL
same,MIC,Staphylococcus aureus [13],0.781 µg/mL
same,MIC,Escherichia coli [14],0.025 µg/mL
same,MIC,Streptococcus pyogenes [15],0.007 µg/mL
same,MIC,Escherichia coli [16],0.049 µg/mL
same,MIC,Escherichia coli [17],0.025 µg/mL
CCO/N=C(\C(=O)NC1C(=O)N2C(C(=O)[O-])=C(CN(C)c3sc(C(=O)OCC)c(C)[n+]3C)CSC12)c1csc(N)n1 (stereo not given),MIC,Streptococcus pyogenes [1],0.007 µg/mL
same,MIC,Streptococcus pyogenes [2],25 µg/mL
same,MIC,Staphylococcus aureus [3],0.781 µg/mL
same,MIC,Pseudomonas aeruginosa [4],25 µg/mL
same,MIC,Enterobacter cloacae [5],0.025 µg/mL
same,MIC,Pseudomonas aeruginosa [6],50 µg/mL
same,MIC,Pseudomonas aeruginosa [7],1.56 µg/mL
same,MIC,Escherichia coli [8],0.195 µg/mL
same,MIC,Enterobacter cloacae [9],3.12 µg/mL
same,MIC,Klebsiella oxytoca,6.25 µg/mL
same,MIC,Staphylococcus aureus [10],1.56 µg/mL
same,MIC,Pseudomonas aeruginosa [11],100 µg/mL
same,MIC,Escherichia coli [12],0.098 µg/mL
same,MIC,Salmonella typhimurium,0.049 µg/mL
same,MIC,Klebsiella aerogenes,0.049 µg/mL
same,MIC,Staphylococcus aureus [13],1.56 µg/mL
same,MIC,Escherichia coli [14],0.049 µg/mL
same,MIC,Streptococcus pyogenes [15],0.004 µg/mL
same,MIC,Escherichia coli [16],0.098 µg/mL
same,MIC,Escherichia coli [17],0.049 µg/mL
C=CCO/N=C(\C(=O)NC1C(=O)N2C(C(=O)[O-])=C(CN(C)c3sc4c([n+]3C)CCCC4)CSC12)c1csc(N)n1 (stereo not given),MIC,Streptococcus pyogenes [1],0.004 µg/mL
same,MIC,Streptococcus pyogenes [2],50 µg/mL
same,MIC,Staphylococcus aureus [3],0.195 µg/mL
same,MIC,Pseudomonas aeruginosa [4],6.25 µg/mL
same,MIC,Enterobacter cloacae [5],0.049 µg/mL
same,MIC,Pseudomonas aeruginosa [6],50 µg/mL
same,MIC,Pseudomonas aeruginosa [7],0.781 µg/mL
same,MIC,Escherichia coli [8],0.391 µg/mL
same,MIC,Enterobacter cloacae [9],12.5 µg/mL
same,MIC,Klebsiella oxytoca,6.25 µg/mL
same,MIC,Staphylococcus aureus [10],0.391 µg/mL
same,MIC,Pseudomonas aeruginosa [11],50 µg/mL
same,MIC,Escherichia coli [12],0.391 µg/mL
same,MIC,Salmonella typhimurium,0.195 µg/mL
same,MIC,Klebsiella aerogenes,0.195 µg/mL
same,MIC,Staphylococcus aureus [13],0.781 µg/mL
same,MIC,Escherichia coli [14],0.049 µg/mL
same,MIC,Streptococcus pyogenes [15],0.004 µg/mL
same,MIC,Escherichia coli [16],0.391 µg/mL
same,MIC,Escherichia coli [17],0.025 µg/mL
CCO/N=C(\C(=O)NC1C(=O)N2C(C(=O)[O-])=C(CN(C)c3scc(C)[n+]3C)CSC12)c1csc(N)n1 (stereo not given),MIC,Streptococcus pyogenes [1],0.013 µg/mL
same,MIC,Streptococcus pyogenes [2],50 µg/mL
same,MIC,Staphylococcus aureus [3],0.391 µg/mL
same,MIC,Pseudomonas aeruginosa [4],3.12 µg/mL
same,MIC,Enterobacter cloacae [5],0.025 µg/mL
same,MIC,Pseudomonas aeruginosa [6],12.5 µg/mL
same,MIC,Pseudomonas aeruginosa [7],0.391 µg/mL
same,MIC,Escherichia coli [8],0.098 µg/mL
same,MIC,Enterobacter cloacae [9],25 µg/mL
same,MIC,Klebsiella oxytoca,6.25 µg/mL
same,MIC,Staphylococcus aureus [10],0.781 µg/mL
same,MIC,Pseudomonas aeruginosa [11],25 µg/mL
same,MIC,Escherichia coli [12],0.098 µg/mL
same,MIC,Salmonella typhimurium,0.049 µg/mL
same,MIC,Klebsiella aerogenes,0.049 µg/mL
same,MIC,Staphylococcus aureus [13],1.56 µg/mL
same,MIC,Escherichia coli [14],0.025 µg/mL
same,MIC,Streptococcus pyogenes [15],0.013 µg/mL
same,MIC,Escherichia coli [16],0.098 µg/mL
same,MIC,Escherichia coli [17],0.025 µg/mL
CCOC(=O)c1sc(N(C)CC2=C(C(=O)[O-])N3C(=O)C(NC(=O)/C(=N\OC)c4csc(N)n4)C3SC2)[n+](C)c1C (stereo not given),MIC,Streptococcus pyogenes [1],0.007 µg/mL
same,MIC,Streptococcus pyogenes [2],25 µg/mL
same,MIC,Staphylococcus aureus [3],0.781 µg/mL
same,MIC,Pseudomonas aeruginosa [4],25 µg/mL
same,MIC,Enterobacter cloacae [5],0.025 µg/mL
same,MIC,Pseudomonas aeruginosa [6],50 µg/mL
same,MIC,Pseudomonas aeruginosa [7],1.56 µg/mL
same,MIC,Escherichia coli [8],0.195 µg/mL
same,MIC,Enterobacter cloacae [9],3.12 µg/mL
same,MIC,Klebsiella oxytoca,6.25 µg/mL
same,MIC,Staphylococcus aureus [10],1.56 µg/mL
same,MIC,Pseudomonas aeruginosa [11],100 µg/mL
same,MIC,Escherichia coli [12],0.098 µg/mL
same,MIC,Salmonella typhimurium,0.049 µg/mL
same,MIC,Klebsiella aerogenes,0.049 µg/mL
same,MIC,Staphylococcus aureus [13],1.56 µg/mL
same,MIC,Escherichia coli [14],0.049 µg/mL
same,MIC,Streptococcus pyogenes [15],0.004 µg/mL
same,MIC,Escherichia coli [16],0.098 µg/mL
same,MIC,Escherichia coli [17],0.049 µg/mL
CO/N=C(\C(=O)NC1C(=O)N2C(C(=O)[O-])=C(CN(C)c3sc(C(N)=O)c(C)[n+]3C)CSC12)c1csc(N)n1 (stereo not given),MIC,Streptococcus pyogenes [1],0.007 µg/mL
same,MIC,Streptococcus pyogenes [2],12.5 µg/mL
same,MIC,Staphylococcus aureus [3],0.195 µg/mL
same,MIC,Pseudomonas aeruginosa [4],6.25 µg/mL
same,MIC,Enterobacter cloacae [5],0.013 µg/mL
same,MIC,Pseudomonas aeruginosa [6],25 µg/mL
same,MIC,Pseudomonas aeruginosa [7],0.781 µg/mL
same,MIC,Escherichia coli [8],0.049 µg/mL
same,MIC,Enterobacter cloacae [9],6.25 µg/mL
same,MIC,Klebsiella oxytoca,3.12 µg/mL
same,MIC,Staphylococcus aureus [10],0.391 µg/mL
same,MIC,Pseudomonas aeruginosa [11],50 µg/mL
same,MIC,Escherichia coli [12],0.049 µg/mL
same,MIC,Salmonella typhimurium,0.049 µg/mL
same,MIC,Klebsiella aerogenes,0.025 µg/mL
same,MIC,Staphylococcus aureus [13],0.781 µg/mL
same,MIC,Escherichia coli [14],0.025 µg/mL
same,MIC,Streptococcus pyogenes [15],0.007 µg/mL
same,MIC,Escherichia coli [16],0.049 µg/mL
same,MIC,Escherichia coli [17],0.025 µg/mL

# — ChEMBL document CHEMBL1133057, “Synthesis and in vitro antibacterial activity of 3-[N-methyl-N-(3-methyl-1,3-thiazolium-2-yl)aminolmethyl cephalosporin derivatives” (2000)
